{"source": "patent US20220279780A1", "about": "“AGRICULTURAL FORMULATION” (ISHIHARA SANGYO KAISHA, LTD., priority 2019, published 2022)", "origin": "cited, not measured here", "data": [{"smiles": "N#CCNC(=O)c1cnccc1C(F)(F)F", "note": "[flonicamid]", "values": [{"measurement": "water solubility", "result": "5,200 ppm"}]}]}
